How the values were obtained:
[1] = system: IGROV-1 human ovarian cancer cells; experiment: Cell cycle arrest by flow cytometry (PI); assay type: cell-based; details: IGROV-1, 100 μM, 24 h treatment, vs untreated
Experimental: 2 Effect of Os/Ru-LBSO and glycine complexes at 50 or 100 μM on the phases of the cell cycle of IGROV-1 human ovarian cancer cells compared with untreated (control) cells. Percentage of cells in G1 (black bar, cell growth), S (gray, DNA synthesis), G2/M, (white, growth/mitosis) as determined by flow cytometry after 24 h treatment with complexes. […] Standard deviations calculated for N = 3 *p-value <0.05 comparing to untreated sample.
(§1) 2.8 Mammalian cell culture
The human ovarian cancer cell line, IGROV-1; the human cervical cancer cell line, HeLa; the human […]; and the human non-cancerous lung fibroblast cell line, MRC5 were cultured in DMEM supplemented with 10% FBS and 100 units/mL of penicillin and 100 µg/mL of streptomycin (1x pen/strep). All cell lines were incubated at 310 K with 5% CO2 and 95% humidity for routine maintenance and during drug treatment. […]
IGROV-1 cells (1 x 10^6 cells per well) were seeded in a 6-well plate and incubated for 24 h at 310 K. Stock solutions (200 µM) of the complexes were prepared by dissolving the compound in 5% (v/v) DMSO followed by dilution with DMEM and then diluted to desired concentrations. All complexes (50 µM and 100 µM) were added to the wells and incubated for 24 h. Cell pellets were collected using 0.25% trypsin and centrifuged (500 x g, 5 mins at 4 °C). Then washed in PBS and fixed with 100% ice-cold ethanol for 20 min on ice. The ethanol […]
was aspirated, cells washed in ice-cold PBS and then stained with 0.2 mg/mL RNase, 0.05 mg/mL propidium iodide (PI) in PBS for 25 min in the dark and on ice. Excess dye was removed, and cells were re-suspended in PBS. Samples were analysed by flow cytometry using the BD

[2] = system: HeLa cervical adenocarcinoma cells; experiment: Antiproliferative activity, SRB assay; assay type: cell-based, human
Experimental: The antiproliferative activity against human A549 lung, IGROV-1 ovarian, and HeLa cervical cancer cell lines and MRC5 normal lung fibroblasts was determined by the sulforhodamine B (SRB) assay. […] IGROV-1 is known to be cisplatin-sensitive and subject to hypermutation.
as §1
The human ovarian cancer cell line, IGROV-1; the human cervical cancer cell line, HeLa; the human […]; and the human non-cancerous lung fibroblast cell line, MRC5 were cultured in DMEM supplemented with 10% FBS and 100 units/mL of penicillin and 100 µg/mL of streptomycin (1x pen/strep). All cell lines were incubated at 310 K with 5% CO2 and 95% humidity for routine maintenance and during drug treatment.
2.9 Sulforhodamine (SRB) cytotoxicity assay
Cells were seeded at 5 × 10^3 cells per well and incubated at 310 K for 48 h. Stock solutions (200 µM) of the complexes were prepared by dissolving the compound in 5% (v/v) DMSO followed by dilution with DMEM and serial dilutions with DMEM were prepared (0.1 µM-200 µM). The cells were exposed to the drug for 24 h. The drug was then removed, and cells were allowed to recover for 72 h, in drug-free media. Cell viability was then determined by the SRB colorimetric assay. The solubilised dye absorbance was analysed on a microplate reader (Thermo Scientific Multiskan FC with Scanit software 4.1) at 470 nm. Data were normalized using Microsoft Excel, and dose-response curves fitted using Origin 2016. The IC50 values

[3] = system: intracellular GSH in IGROV-1 cells; experiment: Glutathione colorimetric detection assay; assay type: cell-based, human; details: IGROV-1, 50 μM, 24 h; statistical significance not confirmed
Experimental: This lowering was not observed for Ru-LBSO which is not active in this cell line. Other papers have shown a similar result by including L-BSO as an additional agent, therefore showing L-BSO remains inhibitory.
Once the agarose had set , the slides were submerged in alkaline lysis solution (1.3 M NaCl, 100 mM Na2EDTA, 0.1% sodium lauryl sarcosinate, 0.26 M NaOH pH > 13) and incubated overnight at 277 K in the dark. The following day the slides were rinsed for 20 min three times in the electrophoresis solution ([…] NaOH, 2mM Na 2EDTA pH 12.3). The slides were then placed into the electrophoresis tank with fresh electrophoresis buffer, 1 -2 mm above the slides. Electrophoresis was run at 18.3 V for 25 min. Once electrophoresis was complete, slides were rinsed in distilled water and placed in 2.5 µg/mL PI for 20 min. After staining, cells were rinsed in distilled water to remove excess stain. Twenty comet images per sample were taken by confocal microscopy and analysed by OpenComet. 10
1 x 10^6 IGROV-1 cells were seeded in a 6-well plate and incubated for 24 h at 310 K. All complexes (50 µM and 100 µM) were added to the wells and incubated for 24 h. […]
Percentage of IGROV -1 cancer cells in non -apoptotic, apoptotic (early and late) or necrotic phases determined by flow cytometry after 24 h treatment with Os/Ru L -BSO and glycine complexes. […] Standard deviations calculated for N=3. […]

**Q.** [(p-cymene)Os(L-BSO)Cl] [Os-LBSO] was tested. Which “G1 arrest (percentage of cells in G1)” value [1] did it give?
**A.** significantly increased

**Q.** And the “Activity toward HeLa cervical cancer cells” value ([2]; SRB)?
**A.** inactive

**Q.** What about the IC50 ([2]; SRB assay, 24 h treatment, 72 h recovery) of the same substance?
**A.** > 200 µM

**Q.** What about the “Lowering of intracellular GSH level” value [3] of the same substance?
**A.** ca. 50%

Source: PMC12728982, “Multichiral Half-Sandwich Ru(II) and Os(II) Anticancer Complexes Containing a Glutathione Synthesis Inhibitor” (Organometallics, 2025)
